Data taken from patent US20220348558A1, “INHIBITORS OF ENCEPHALITIC ALPHAVIRUSES” (priority 2019, published 2022).

Tests used:
[1] = test system: VEEV TC83; assay: microbe, parasite or virus in culture; format: cell-based; conditions: Venezuelan equine encephalitis virus, Vero 76, 48 h, read-out: VEEV TC83 EC50 nM
[2] = test system: WEEV California; assay: microbe, parasite or virus in culture; format: cell-based; conditions: Western equine encephalitis virus, Vero 76, 48 h, read-out: WEEV California EC50 nM

`COc1ccc(-n2c(C[C@H]3CCCN3)nc3c(-c4ccc(C)nc4)cc(C#N)cc3c2=O)cc1F` [Example 117, (R)-3-(3-fluoro-4-methoxyphenyl)-8-(6-methylpyridin-3-yl)-4-oxo-2-(pyrrolidin-2-ylmethyl)-3,4-dihydroquinazoline-6-carbonitrile] gave an EC50 [1] of 151 to 500 nM and an EC50 [2] of 501 to 1000 nM.

`COc1ccc(-n2c([C@H]3C[C@H](F)CN3)nc3c(C)cc([N+](=O)[O-])cc3c2=O)cc1F` [Example 62, 2-((2R,4S)-4-fluoropyrrolidin-2-yl)-3-(3-fluoro-4-methoxyphenyl)-8-methyl-6-nitroquinazolin-4 (3H)-one] gave an EC50 [1] of 51 to 150 nM and an EC50 [2] of 51 to 150 nM.

For `COc1ccc(-n2c([C@@H]3CCCN3C)nc3ccc([N+](=O)[O-])cc3c2=O)cc1` [Example 13, (S)-3-(4-methoxyphenyl)-2-(1-methylpyrrolidin-2-yl)-6-nitroquinazolin-4 (3H)-one], the EC50 [1] was 1 to 50 nM and the EC50 [2] was 51 to 150 nM.

For `Cc1cc(-c2cc(C#N)cc3c(=O)n(-c4cc(F)c(N5CC6(COC6)C5)c(F)c4)c(C4CCCN4)nc23)cc(C)n1` (stereo not drawn) [Example 163, 3-(3,5-difluoro-4-(2-oxa-6-azaspiro[3.3]heptan-6-yl)phenyl)-8-(2,6-dimethylpyridin-4-yl)-4-oxo-2-(pyrrolidin-2-yl)-3,4-dihydroquinazoline-6-carbonitrile], the EC50 [1] was > 1000 nM and the EC50 [2] was > 1000 nM.

Molecule `COc1ccc(-n2c(C3CCCN3)nc3c(-c4ccc(S(C)(=O)=O)cc4)cc(C#N)cc3c2=O)cc1F` (stereo not drawn) [Example 136, 3-(3-fluoro-4-methoxyphenyl)-8-(4-(methylsulfonyl)phenyl)-4-oxo-2-(pyrrolidin-2-yl)-3,4-dihydroquinazoline-6-carbonitrile] has an EC50 [1] of 1 to 50 nM and an EC50 [2] of 1 to 50 nM.

In the case of `O=c1c2cc([N+](=O)[O-])ccc2nc(C2CCCN2)n1-c1ccc(F)cc1` (stereo not drawn) [Example 42, 3-(4-fluorophenyl)-6-nitro-2-(pyrrolidin-2-yl)quinazolin-4 (3H)-one], the EC50 [1] is reported as 51 to 150 nM and the EC50 [2] is reported as 151 to 500 nM.

For `COc1ccc(-n2c(C3CCCN3C)nc3c(-c4ccc(C)nc4)cc(C#N)cc3c2=O)cc1F` (stereo not drawn) [Example 111, 3-(3-fluoro-4-methoxyphenyl)-8-(6-methylpyridin-3-yl)-2-(1-methylpyrrolidin-2-yl)-4-oxo-3,4-dihydroquinazoline-6-carbonitrile], the EC50 [1] was 1 to 50 nM and the EC50 [2] was 1 to 50 nM.

`O=c1c2cc([N+](=O)[O-])ccc2nc(C2CCCN2)n1-c1cccc(F)c1` (stereo not drawn) [Example 40, 3-(3-fluorophenyl)-6-nitro-2-(pyrrolidin-2-yl)quinazolin-4 (3H)-one] gave an EC50 [1] of 1 to 50 nM and an EC50 [2] of 501 to 1000 nM.

`Cc1cccc(-n2c([C@H]3CCCN3)nc3ccc([N+](=O)[O-])cc3c2=O)c1` [Example 36, (R)-6-nitro-2-(pyrrolidin-2-yl)-3-(m-tolyl)quinazolin-4 (3H)-one] was tested, and the EC50 [1] was 51 to 150 nM and the EC50 [2] was 501 to 1000 nM.

Work on `COc1ccc(-n2c(C3CC4CCC3N4)nc3c(-c4ccc(C)nc4)cc(C#N)cc3c2=O)cc1F` (stereo not drawn) [Example 143, 2-(7-azabicyclo[2.2.1]heptan-2-yl)-3-(3-fluoro-4-methoxyphenyl)-8-(6-methylpyridin-3-yl)-4-oxo-3,4-dihydroquinazoline-6-carbonitrile] yielded an EC50 [1] of 51 to 150 nM and an EC50 [2] of 151 to 500 nM.

In the case of `COc1c(F)cc(-n2c([C@H]3CCCN3)nc3c(-c4ccc(C)nc4)cc(C#N)cc3c2=O)cc1F` [Example 119, (R)-3-(3,5-difluoro-4-methoxyphenyl)-8-(6-methylpyridin-3-yl)-4-oxo-2-(pyrrolidin-2-yl)-3,4-dihydroquinazoline-6-carbonitrile], the EC50 [1] is reported as 1 to 50 nM and the EC50 [2] is reported as 1 to 50 nM.

With `COc1ccc(-c2cc(C#N)cc3c(=O)n(-c4ccc(OC)c(F)c4)c(C4CCCN4)nc23)cc1` (stereo not drawn) [Example 147, 3-(3-Fluoro-4-methoxyphenyl)-8-(4-methoxyphenyl)-4-oxo-2-(pyrrolidin-2-yl)-3,4-dihydroquinazoline-6-carbonitrile] the EC50 [1] was 1 to 50 nM and the EC50 [2] was 1 to 50 nM.

With `COc1c(F)cc(-n2c([C@H]3CCCN3)nc3c(-c4ccc(C(F)(F)F)nc4)cc(C#N)cc3c2=O)cc1F` [Example 118, (R)-3-(3,5-difluoro-4-methoxyphenyl)-4-oxo-2-(pyrrolidin-2-yl)-8-(6-(trifluoromethyl)pyridin-3-yl)-3,4-dihydroquinazoline-6-carbonitrile] the EC50 [1] was 1 to 50 nM and the EC50 [2] was 51 to 150 nM.

Work on `COc1ccc(-n2c([C@H]3CCCN3)nc3ccc(C#N)cc3c2=O)cc1` [Example 14, (R)-3-(4-methoxyphenyl)-4-oxo-2-(pyrrolidin-2-yl)-3,4-dihydroquinazoline-6-carbonitrile] yielded an EC50 [1] of 1 to 50 nM and an EC50 [2] of 51 to 150 nM.

For `COc1ccc(-n2c(-c3cocn3)nc3c(-c4ccc(C)nc4)cc(C#N)cc3c2=O)cc1F` [Example 197, 3-(3-fluoro-4-methoxyphenyl)-8-(6-methylpyridin-3-yl)-2-(oxazol-4-yl)-4-oxo-3,4-dihydroquinazoline-6-carbonitrile], the EC50 [1] was 501 to 1000 nM and the EC50 [2] was > 1000 nM.

`COc1ccc(-n2c([C@@H]3CCCN3)nc3c(F)cc(C#N)cc3c2=O)cc1` [Example 79, (S)-8-fluoro-3-(4-methoxyphenyl)-4-oxo-2-(pyrrolidin-2-yl)-3,4-dihydroquinazoline-6-carbonitrile] showed an EC50 [1] of 501 to 1000 nM and an EC50 [2] of 501 to 1000 nM.

In the case of `COCCOc1c(F)cc(-n2c(C3CCCN3)nc3c(-c4ccnc(C)c4)cc(C#N)cc3c2=O)cc1F` (stereo not drawn) [Example 161, 3-(3,5-Difluoro-4-(2-methoxyethoxy)phenyl)-8-(2-methylpyridin-4-yl)-4-oxo-2-(pyrrolidin-2-yl)-3,4-dihydroquinazoline-6-carbonitrile], the EC50 [1] is reported as 51 to 150 nM and the EC50 [2] is reported as 151 to 500 nM.

For `COc1ccc(-n2c([C@H]3CCCN3)nc3c(-c4cncc(F)c4)cc([N+](=O)[O-])cc3c2=O)cc1F` [Example 93, (R)-3-(3-fluoro-4-methoxyphenyl)-8-(5-fluoropyridin-3-yl)-6-nitro-2-(pyrrolidin-2-yl) quinazolin-4 (3H)-one], the EC50 [1] was 1 to 50 nM and the EC50 [2] was 1 to 50 nM.

Molecule `COc1ccc(-n2c(C3CCCN3)nc3c(-c4cnc(C)c(C)c4)cc(C#N)cc3c2=O)cc1F` (stereo not drawn) [Example 137, 8-(5,6-dimethylpyridin-3-yl)-3-(3-fluoro-4-methoxyphenyl)-4-oxo-2-(pyrrolidin-2-yl)-3,4-dihydroquinazoline-6-carbonitrile] has an EC50 [1] of 1 to 50 nM and an EC50 [2] of 1 to 50 nM.

In the case of `COc1ccc(-n2c([C@H]3CCCN3)nc3c(F)c(F)c(F)cc3c2=O)cc1` [Example 16, (R)-6,7,8-trifluoro-3-(4-methoxyphenyl)-2-(pyrrolidin-2-yl)quinazolin-4 (3H)-one], the EC50 [1] is reported as 501 to 1000 nM and the EC50 [2] is reported as > 1000 nM.

`COc1c(F)cc(-n2c(C34CC(CN3)C4)nc3c(-c4ccc(C)nc4)cc(C#N)cc3c2=O)cc1F` [Example 175, 2-(2-azabicyclo[2.1.1]hexan-1-yl)-3-(3,5-difluoro-4-methoxyphenyl)-8-(6-methylpyridin-3-yl)-4-oxo-3,4-dihydroquinazoline-6-carbonitrile] was tested, and the EC50 [1] was 1 to 50 nM and the EC50 [2] was 51 to 150 nM.

`CNC(C)c1nc2ccc([N+](=O)[O-])cc2c(=O)n1-c1ccc(OC)cc1` (stereo not drawn) [Example 205, 3-(4-methoxyphenyl)-2-(1-(methylamino)ethyl)-6-nitroquinazolin-4 (3H)-one] gave an EC50 [1] of 51 to 150 nM and an EC50 [2] of 51 to 150 nM.

`COc1ccc(-n2c([C@@H]3CCCN3)nc3c(C(F)(F)F)cc(C#N)cc3c2=O)cc1` [Example 75, (S)-3-(4-methoxyphenyl)-4-oxo-2-(pyrrolidin-2-yl)-8-(trifluoromethyl)-3,4-dihydroquinazoline-6-carbonitrile] gave an EC50 [1] of 51 to 150 nM and an EC50 [2] of 51 to 150 nM.

In the case of `COc1ccc(-n2c([C@@H]3CCN(C)C3)nc3c(C)cc([N+](=O)[O-])cc3c2=O)cc1F` [Example 68, (R)-3-(3-fluoro-4-methoxyphenyl)-8-methyl-2-(1-methylpyrrolidin-3-yl)-6-nitroquinazolin-4 (3H)-one], the EC50 [1] is reported as 151 to 500 nM and the EC50 [2] is reported as 151 to 500 nM.

Molecule `COc1ccc(-n2c(C3CCCN3)nc3c(-c4ccc(N5CCN(C)CC5)nc4)cc(C#N)cc3c2=O)cc1F` (stereo not drawn) [Example 132, 3-(3-fluoro-4-methoxyphenyl)-8-(6-(4-methylpiperazin-1-yl)pyridin-3-yl)-4-oxo-2-(pyrrolidin-2-yl)-3,4-dihydroquinazoline-6-carbonitrile] has an EC50 [1] of 1 to 50 nM and an EC50 [2] of 1 to 50 nM.

`C=C(C)c1ccc(-c2cc(C#N)cc3c(=O)n(-c4cc(F)c(OC)c(F)c4)c(C4CCCN4)nc23)cc1` (stereo not drawn) [Example 172, 3-(3,5-difluoro-4-methoxyphenyl)-4-oxo-8-(4-(prop-1-en-2-yl)phenyl)-2-(pyrrolidin-2-yl)-3,4-dihydroquinazoline-6-carbonitrile] gave an EC50 [1] of 51 to 150 nM and an EC50 [2] of 51 to 150 nM.

Work on `COc1ccc(-n2c(C3CCCN3)nc3c(N4CCC(N5CCOCC5)CC4)cc(C#N)cc3c2=O)cc1F` (stereo not drawn) [Example 114, 3-(3-fluoro-4-methoxyphenyl)-8-(4-morpholinopiperidine-1-yl)-4-oxo-2-(pyrrolidin-2-yl)-3,4-dihydroquinazoline-6-carbonitrile] yielded an EC50 [1] of 1 to 50 nM and an EC50 [2] of 51 to 150 nM.

`COc1ccc(-n2c(C3CCCN3)nc3c(-c4ccc(O)nc4)cc(C#N)cc3c2=O)cc1F` (stereo not drawn) [Example 131, 3-(3-fluoro-4-methoxyphenyl)-8-(6-hydroxypyridin-3-yl)-4-oxo-2-(pyrrolidin-2-yl)-3,4-dihydroquinazoline-6-carbonitrile] gave an EC50 [1] of 1 to 50 nM and an EC50 [2] of 1 to 50 nM.

With `COc1ccc(-n2c([C@@H]3CCCN3)nc3c(-c4cccnc4)cc([N+](=O)[O-])cc3c2=O)cc1F` [Example 83, (S)-3-(3-fluoro-4-methoxyphenyl)-6-nitro-8-(pyridin-3-yl)-2-(pyrrolidin-2-yl) quinazolin-4 (3H)-one] the EC50 [1] was 1 to 50 nM and the EC50 [2] was 1 to 50 nM.

Molecule `COc1c(F)cc(-n2c(C3CCCNC3)nc3c(-c4ccc(C)nc4)cc(C#N)cc3c2=O)cc1F` (stereo not drawn) [Example 189, 3-(3,5-difluoro-4-methoxyphenyl)-8-(6-methylpyridin-3-yl)-4-oxo-2-(piperidin-3-yl)-3,4-dihydroquinazoline-6-carbonitrile] has an EC50 [1] of 51 to 150 nM and an EC50 [2] of 51 to 150 nM.
